Consider 16 molecules from patent US8273754B2, “Substituted 1H-pyrazolo[3,4-D]pyrimidine-6-amine compounds” (ArQule, Inc., priority 2008, dated 2012).

Molecules are shown by their SMILES. Where two headings read alike, the source gives them in different places. Some results are limits rather than exact numbers.

The experiment deals with cancer cells. Nature of the experiment: MTS cell growth inhibition assay (72 hours). The format is cell-based. Summed up:
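Cells in DMEM with 1% FBS, seeded 18 h, then compound-treated 72 h at 37 °C. Viability by MTS/PMS for 4 h, formazan absorbance at 492 nm; IC50 taken as concentration giving 50% absorbance drop, activity banded by percent inhibition.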

Where [1] appears, read: Homo sapiens, DLD-1, 72 h, DLD-1 cells, read-out: DLD-1 MTS 72 hr at 10 μM.
Setting [2] is: Homo sapiens, KATO III, 72 h, KATO III cells, read-out: KATO III MTS 72 hr at 10 μM.
Setting [3] is: Homo sapiens, MDA-MB-231, 72 h, MDA-MB-231 cells, read-out: MDA-MB-231 MTS 72 hr at 10 μM.
Where [4] appears, read: Homo sapiens, NCI-H1299, 72 h, NCI-H1299 cells, read-out: NCI-H1299 MTS 72 hr at 10 μM.
Setting [5] is: PaCa-2, 72 h, PACA-2 cells, read-out: PACA-2 MTS 72 hr at 10 μM.

For the molecule `Nc1nc(NC2Cc3ccccc3N(S(=O)(=O)c3cccc(NC(=O)Nc4ccc(F)c(F)c4)c3)C2)c2cn[nH]c2n1` (stereo not shown) [Compound 207, 1-[3-({3-[(6-amino-1H-pyrazolo[3,4-d]pyrimidin-4-yl)amino]-3,4-dihydroquinolin-1(2H)-yl}sulfonyl)phenyl]-3-(3,4-difluorophenyl)urea], the inhibition at 10 µM is, setting by setting: under setting [1], above 79%; under setting [2], above 79%; under setting [3], above 79%; under setting [4], above 79%; under setting [5], above 79%.

As for `Nc1nc(NC2Cc3ccccc3N(S(=O)(=O)c3cccc(NC(=O)Nc4c(Cl)cccc4Cl)c3)C2)c2cn[nH]c2n1` (stereo not shown) [Compound 208, 1-[3-({3-[(6-amino-1H-pyrazolo[3,4-d]pyrimidin-4-yl)amino]-3,4-dihydroquinolin-1(2H)-yl}sulfonyl)phenyl]-3-(2,6-dichlorophenyl)urea], the inhibition at 10 µM is below 50% under setting [1]; below 50% under setting [2]; below 50% under setting [3]; below 50% under setting [4]; 50 to 79% under setting [5].

On to `Nc1nc(NC2Cc3ccccc3N(S(=O)(=O)c3cccc(NC(=O)Nc4ccc(C(F)(F)F)cc4)c3)C2)c2cn[nH]c2n1` (stereo not shown) [Compound 209, 1-[3-({3-[(6-amino-1H-pyrazolo[3,4-d]pyrimidin-4-yl)amino]-3,4-dihydroquinolin-1(2H)-yl}sulfonyl)phenyl]-3-[4-(trifluoromethyl)phenyl]urea], for which the inhibition at 10 µM by setting is: under setting [1], above 79%; under setting [2], above 79%; under setting [3], above 79%; under setting [4], above 79%; under setting [5], above 79%.

In the case of `Nc1nc(NC2Cc3ccccc3N(S(=O)(=O)c3cccc(NC(=O)NCc4ccccc4)c3)C2)c2cn[nH]c2n1` (stereo not shown) [Compound 210, 1-[3-({3-[(6-amino-1H-pyrazolo[3,4-d]pyrimidin-4-yl)amino]-3,4-dihydroquinolin-1(2H)-yl}sulfonyl)phenyl]-3-benzylurea], the inhibition at 10 µM under setting [1] was below 50%; the inhibition at 10 µM under setting [2] is below 50%; the inhibition at 10 µM under setting [3] is below 50%; the inhibition at 10 µM under setting [4] was below 50%; the inhibition at 10 µM under setting [5] was below 50%.

Take `Nc1nc(NC2Cc3ccccc3N(S(=O)(=O)c3cccc(NC(=O)Nc4cccc(Cl)c4Cl)c3)C2)c2cn[nH]c2n1` (stereo not shown) [Compound 211, 1-[3-({3-[(6-amino-1H-pyrazolo[3,4-d]pyrimidin-4-yl)amino]-3,4-dihydroquinolin-1(2H)-yl}sulfonyl)phenyl]-3-(2,3-dichlorophenyl)urea]: the inhibition at 10 µM was above 79% under setting [1]; above 79% under setting [2]; above 79% under setting [3]; above 79% under setting [4]; above 79% under setting [5].

For the molecule `Nc1nc(NC2Cc3ccccc3N(S(=O)(=O)c3cccc(NC(=O)Nc4ccc5ccccc5c4)c3)C2)c2cn[nH]c2n1` (stereo not shown) [Compound 212, 1-[3-({3-[(6-amino-1H-pyrazolo[3,4-d]pyrimidin-4-yl)amino]-3,4-dihydroquinolin-1(2H)-yl}sulfonyl)phenyl]-3-(2-naphthyl)urea], the inhibition at 10 µM was above 79% under setting [1]; above 79% under setting [2]; above 79% under setting [3]; above 79% under setting [4]; above 79% under setting [5].

Take `Cc1ccccc1NC(=O)Nc1cccc(S(=O)(=O)N2CC(Nc3nc(N)nc4[nH]ncc34)Cc3ccccc32)c1` (stereo not shown) [Compound 213, 1-[3-({3-[(6-amino-1H-pyrazolo[3,4-d]pyrimidin-4-yl)amino]-3,4-dihydroquinolin-1(2H)-yl}sulfonyl)phenyl]-3-(2-methylphenyl)urea]: the inhibition at 10 µM under setting [1] is below 50%; the inhibition at 10 µM under setting [2] is above 79%; the inhibition at 10 µM under setting [3] is below 50%; the inhibition at 10 µM under setting [4] is below 50%; the inhibition at 10 µM under setting [5] fell in the range of 50 to 79%.

For `Nc1nc(NC2Cc3ccccc3N(S(=O)(=O)c3cccc(NC(=O)Nc4ccc5c(c4)CCC5)c3)C2)c2cn[nH]c2n1` (stereo not shown) [Compound 214, 1-[3-({3-[(6-amino-1H-pyrazolo[3,4-d]pyrimidin-4-yl)amino]-3,4-dihydroquinolin-1(2H)-yl}sulfonyl)phenyl]-3-(2,3-dihydro-1H-inden-5-yl)urea], the inhibition at 10 µM under setting [1] was above 79%; the inhibition at 10 µM under setting [2] is above 79%; the inhibition at 10 µM under setting [3] is above 79%; the inhibition at 10 µM under setting [4] was 50 to 79%; the inhibition at 10 µM under setting [5] was above 79%.

Regarding `Nc1nc(NC2Cc3ccccc3N(S(=O)(=O)c3cccc(NC(=O)Nc4ccccc4F)c3)C2)c2cn[nH]c2n1` (stereo not shown) [Compound 215, 1-[3-({3-[(6-amino-1H-pyrazolo[3,4-d]pyrimidin-4-yl)amino]-3,4-dihydroquinolin-1(2H)-yl}sulfonyl)phenyl]-3-(2-fluorophenyl)urea], the inhibition at 10 µM under setting [4] is below 50%.

In the case of `Nc1nc(NC2Cc3ccccc3N(S(=O)(=O)c3cccc(NC(=O)Nc4cc(F)cc(C(F)(F)F)c4)c3)C2)c2cn[nH]c2n1` (stereo not shown) [Compound 217, 1-[3-({3-[(6-amino-1H-pyrazolo[3,4-d]pyrimidin-4-yl)amino]-3,4-dihydroquinolin-1(2H)-yl}sulfonyl)phenyl]-3-[3-fluoro-5-(trifluoromethyl)phenyl]urea], the inhibition at 10 µM was above 79% under setting [1]; above 79% under setting [2]; above 79% under setting [3]; above 79% under setting [4]; above 79% under setting [5].

With `Cc1ccc(Cl)c(NC(=O)Nc2cccc(S(=O)(=O)N3CC(Nc4nc(N)nc5[nH]ncc45)Cc4ccccc43)c2)c1` (stereo not shown) [Compound 218, 1-[3-({3-[(6-amino-1H-pyrazolo[3,4-d]pyrimidin-4-yl)amino]-3,4-dihydroquinolin-1(2H)-yl}sulfonyl)phenyl]-3-(2-chloro-5-methylphenyl)urea], the inhibition at 10 µM runs as follows: under setting [1], above 79%; under setting [2], above 79%; under setting [3], above 79%; under setting [4], above 79%; under setting [5], above 79%.

Consider `Nc1nc(NC2Cc3ccccc3N(S(=O)(=O)c3cccc(NC(=O)Nc4cccc(F)c4)c3)C2)c2cn[nH]c2n1` (stereo not shown) [Compound 219, 1-[3-({3-[(6-amino-1H-pyrazolo[3,4-d]pyrimidin-4-yl)amino]-3,4-dihydroquinolin-1(2H)-yl}sulfonyl)phenyl]-3-(3-fluorophenyl)urea], for which the inhibition at 10 µM under setting [1] was above 79%; the inhibition at 10 µM under setting [2] is above 79%; the inhibition at 10 µM under setting [3] is above 79%; the inhibition at 10 µM under setting [4] is above 79%; the inhibition at 10 µM under setting [5] was above 79%.

As to `Nc1nc(NC2Cc3ccccc3N(S(=O)(=O)c3cccc(NC(=O)Nc4cc(C(F)(F)F)ccc4F)c3)C2)c2cn[nH]c2n1` (stereo not shown) [Compound 220, 1-[3-({3-[(6-amino-1H-pyrazolo[3,4-d]pyrimidin-4-yl)amino]-3,4-dihydroquinolin-1(2H)-yl}sulfonyl)phenyl]-3-[2-fluoro-5-(trifluoromethyl)phenyl]urea], the inhibition at 10 µM is above 79% under setting [1]; above 79% under setting [2]; above 79% under setting [3]; above 79% under setting [4]; above 79% under setting [5].

In the case of `Nc1nc(NC2Cc3ccccc3N(S(=O)(=O)c3cccc(NC(=O)Nc4cccc(Cl)c4F)c3)C2)c2cn[nH]c2n1` (stereo not shown) [Compound 221, 1-[3-({3-[(6-amino-1H-pyrazolo[3,4-d]pyrimidin-4-yl)amino]-3,4-dihydroquinolin-1(2H)-yl}sulfonyl)phenyl]-3-(3-chloro-2-fluorophenyl)urea], the inhibition at 10 µM under setting [1] is above 79%; the inhibition at 10 µM under setting [2] was above 79%; the inhibition at 10 µM under setting [3] was above 79%; the inhibition at 10 µM under setting [4] was above 79%; the inhibition at 10 µM under setting [5] is above 79%.

With `Nc1nc(NC2Cc3ccccc3N(S(=O)(=O)c3cccc(NC(=O)Nc4ccc(Cl)c(C(F)(F)F)c4)c3)C2)c2cn[nH]c2n1` (stereo not shown) [Compound 223, 1-(3-(3-(6-amino-1H-pyrazolo[3,4-d]pyrimidin-4-ylamino)-3,4-dihydroquinolin-1(2H)-ylsulfonyl)phenyl)-3-(4-chloro-3-(trifluromethyl)phenyl)urea], the inhibition at 10 µM is, setting by setting: under setting [1], above 79%; under setting [2], above 79%; under setting [3], above 79%; under setting [4], above 79%; under setting [5], above 79%.

Take `Nc1nc(NC2Cc3ccccc3N(S(=O)(=O)c3ccc(NC(=O)Nc4ccccc4)cc3)C2)c2cn[nH]c2n1` (stereo not shown) [Compound 225, 1-(4-(3-(6-amino-1H-pyrazolo[3,4-d]pyrimidin-4-ylamino)-3,4-dihydroquinolin-1(2H)-ylsulfonyl)phenyl)-3-phenylurea]: the inhibition at 10 µM under setting [1] was above 79%; the inhibition at 10 µM under setting [2] was above 79%; the inhibition at 10 µM under setting [3] is above 79%; the inhibition at 10 µM under setting [4] is above 79%; the inhibition at 10 µM under setting [5] was above 79%.
